Data from US6737383B1, “Herbicidal oxadiazolidines” (priority 1999, dated 2004).

Key:
bedstraw = experiment: Test B pre/postemergence bedstraw; type: in vivo, Galium aparine
Method in brief: (§1)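 Test chemicals in a non-phytotoxic solvent mixture with surfactant were sprayed preemergence onto planted seeds and postemergence onto plants 2 to 18 cm tall (1- to 4-leaf stage). After twelve to sixteen days in a greenhouse, injury was visually rated against untreated controls from 0 (no effect) to 10 (complete control).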

surinam grass = experiment: Test B pre/postemergence surinam grass; type: in vivo, Brachiaria decumbens
Method in brief: as §1

cocklebur = experiment: Test B pre/postemergence cocklebur; type: in vivo, Xanthium strumarium
Method in brief: as §1

corn = experiment: Test B pre/postemergence corn; type: in vivo, Zea mays
Method in brief: as §1

giant foxtail = experiment: Test B pre/postemergence giant foxtail; type: in vivo, Setaria faberii
Method in brief: as §1

pigweed = experiment: Test B pre/postemergence pigweed; type: in vivo, Amaranthus retroflexus
Method in brief: as §1

rape = experiment: Test B pre/postemergence rape; type: in vivo, Brassica napus
Method in brief: as §1

soybean = experiment: Test B pre/postemergence soybean; type: in vivo, Glycine max
Method in brief: as §1

sugar beet = experiment: Test B pre/postemergence sugar beet; type: in vivo, Beta vulgaris
Method in brief: as §1

velvetleaf = experiment: Test B pre/postemergence velvetleaf; type: in vivo, Abutilon theophrasti
Method in brief: as §1

wheat = experiment: Test B pre/postemergence wheat; type: in vivo, Triticum aestivum
Method in brief: as §1

wild oat = experiment: Test B pre/postemergence wild oat; type: in vivo, Avena fatua
Method in brief: as §1

purple nutsedge = experiment: Test B pre/postemergence purple nutsedge; type: in vivo, Cyperus rotundus
Method in brief: as §1

rice = experiment: Test B flood test rice; type: in vivo, Oryza sativa
Method in brief: (§2)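 Read-out is a visual response score from 0 (no effect) to 10 (complete control), assigned by comparison with untreated controls. Treatment was applied at the 2-leaf stage, and plants stayed in the greenhouse for twelve to sixteen days before scoring.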

smallflower flatsedge = experiment: Test B flood test smallflower flatsedge; type: in vivo, Cyperus difformis
Method in brief: as §2

duck salad = experiment: Test B flood test duck salad; type: in vivo, Heteranthera limosa
Method in brief: as §2

[1] = Preemergence, Rate 62 g/ha, scale of 0 to 10 where 0 is no effect and 10 is complete control
[2] = Preemergence, Rate 125 g/ha, 0 is no effect, 10 is complete control
[3] = Preemergence, Rate 250 g/ha, scale 0 to 10, 0 is no effect, 10 is complete control
[4] = Preemergence, Rate 500 g/ha, scale 0 to 10 (0 no effect, 10 complete control)
[5] = Rate 62 g/ha, Postemergence, scale of 0 to 10 where 0 is no effect and 10 is complete control
[6] = Rate 125 g/ha, Postemergence, scale 0 to 10
[7] = Rate 500 g/ha, Postemergence, scale 0 to 10
[8] = Rate 62 g/ha, headed Pre-emergence (flood test species), scale 0 to 10 (0 no effect, 10 complete control)
[9] = Rate 125 g/ha, Pre-emergence, flood test species, scale 0 to 10 where 0 is no effect and 10 is complete control
[10] = Rate 250 g/ha, Pre-emergence, flood-test species, scale 0 to 10, 0 is no effect, 10 is complete control
[11] = Rate 500 g/ha, headed Pre-emergence (flood test species), scale 0 to 10 (0 no effect, 10 complete control)

Cc1ccccc1-n1c(=O)on(C(=O)N(c2ccc(-c3ccccc3)cc2)C(C)C)c1=O [Compound 187]
0: Bedstraw plant response rating (bedstraw; [1]) | Bedstraw plant response rating (0 to 10 scale) (bedstraw; [2]) | Bedstraw plant response rating (bedstraw; [3]) | Bedstraw plant response rating (bedstraw; [4]) | Bedstraw plant response rating (bedstraw; [5]) | Bedstraw plant response rating (bedstraw; [6]) | Plant response rating (0 to 10; 0 is no effect, 10 is complete control), Bedstraw (bedstraw; Rate 250 g/ha, Postemergence) | Bedstraw plant response rating (bedstraw; [7]) | B. signalgrass plant response rating (surinam grass; [1]) | B. signalgrass plant response rating (0 to 10 scale) (surinam grass; [2]) | B. signalgrass plant response rating (surinam grass; [3]) | B. signalgrass plant response rating (surinam grass; [4]) | B. signalgrass plant response rating (surinam grass; [5]) | B. signalgrass plant response rating (surinam grass; Rate 125 g/ha, Postemergence, scale 0 (no effect) to 10 (complete control)) | Plant response rating, B. signalgrass (surinam grass; Rate 250 g/ha, Postemergence, scale 0 to 10, 0 is no effect, 10 is complete control) | B. signalgrass plant response rating (surinam grass; Rate 500 g/ha, Postemergence, scale 0 to 10, 0 no effect, 10 complete control) | Cocklebur plant response rating (cocklebur; [1]) | Cocklebur plant response rating (0 to 10 scale) (cocklebur; [2]) | Cocklebur plant response rating (cocklebur; [3]) | Cocklebur plant response rating (cocklebur; [4]) | Cocklebur plant response rating (cocklebur; [5]) | Cocklebur plant response rating (cocklebur; [6]) | Plant response rating (0 to 10; 0 is no effect, 10 is complete control), Cocklebur (cocklebur; Rate 250 g/ha, Postemergence) | Cocklebur plant response rating (cocklebur; [7]) | Corn plant response rating (corn; [1]) | Corn plant response rating (0 to 10 scale) (corn; [2]) | Corn plant response rating (corn; [3]) | Corn plant response rating (corn; [4]) | Corn plant response rating (corn; [5]) | Corn plant response rating (corn; [6]) | Plant response rating (0 to 10; 0 is no effect, 10 is complete control), Corn (corn; Rate 250 g/ha, Postemergence) | Corn plant response rating (corn; [7]) | Giant foxtail plant response rating (giant foxtail; [1]) | Giant foxtail plant response rating (0 to 10 scale) (giant foxtail; [2]) | Giant foxtail plant response rating (giant foxtail; [3]) | Giant foxtail plant response rating (giant foxtail; [4]) | Giant foxtail plant response rating (giant foxtail; [5]) | Giant foxtail plant response rating (giant foxtail; [6]) | Plant response rating (0 to 10; 0 is no effect, 10 is complete control), Giant foxtail (giant foxtail; Rate 250 g/ha, Postemergence) | Giant foxtail plant response rating (giant foxtail; [7]) | Redroot pigweed plant response rating (pigweed; [1]) | Redroot pigweed plant response rating (0 to 10 scale) (pigweed; [2]) | Redroot pigweed plant response rating (pigweed; [3]) | Redroot pigweed plant response rating (pigweed; [4]) | Redroot pigweed plant response rating (pigweed; [5]) | Redroot pigweed plant response rating (pigweed; [6]) | Plant response rating (0 to 10; 0 is no effect, 10 is complete control), Redroot pigweed (pigweed; Rate 250 g/ha, Postemergence) | Redroot pigweed plant response rating (pigweed; [7]) | Rape plant response rating (rape; [1]) | Rape plant response rating (0 to 10 scale) (rape; [2]) | Rape plant response rating (rape; [3]) | Rape plant response rating (rape; [4]) | Rape plant response rating (rape; [5]) | Rape plant response rating (rape; [6]) | Plant response rating (0 to 10; 0 is no effect, 10 is complete control), Rape (rape; Rate 250 g/ha, Postemergence) | Rape plant response rating (rape; [7]) | Soybean plant response rating (soybean; [1]) | Soybean plant response rating (0 to 10 scale) (soybean; [2]) | Soybean plant response rating (soybean; [3]) | Soybean plant response rating (soybean; [4]) | Soybean plant response rating (soybean; [5]) | Soybean plant response rating (soybean; [6]) | Plant response rating (0 to 10; 0 is no effect, 10 is complete control), Soybean (soybean; Rate 250 g/ha, Postemergence) | Soybean plant response rating (soybean; [7]) | Sugarbeets plant response rating (sugar beet; [1]) | Sugarbeets plant response rating (0 to 10 scale) (sugar beet; [2]) | Sugarbeets plant response rating (sugar beet; [3]) | Sugarbeets plant response rating (sugar beet; [4]) | Sugarbeets plant response rating (sugar beet; [5]) | Sugarbeets plant response rating (sugar beet; [6]) | Plant response rating (0 to 10; 0 is no effect, 10 is complete control), Sugarbeets (sugar beet; Rate 250 g/ha, Postemergence) | Sugarbeets plant response rating (sugar beet; [7]) | Velvetleaf plant response rating (velvetleaf; [1]) | Velvetleaf plant response rating (velvetleaf; [3]) | Velvetleaf plant response rating (velvetleaf; [4]) | Velvetleaf plant response rating (velvetleaf; [5]) | Velvetleaf plant response rating (velvetleaf; [6]) | Plant response rating (0 to 10; 0 is no effect, 10 is complete control), Velvetleaf (velvetleaf; Rate 250 g/ha, Postemergence) | Wheat plant response rating (wheat; [1]) | Wheat plant response rating (wheat; [3]) | Wheat plant response rating (wheat; [4]) | Wheat plant response rating (wheat; [5]) | Wheat plant response rating (wheat; [6]) | Plant response rating (0 to 10; 0 is no effect, 10 is complete control), Wheat (wheat; Rate 250 g/ha, Postemergence) | Wild oats plant response rating (wild oat; [1]) | Wild oats plant response rating (wild oat; [3]) | Wild oats plant response rating (wild oat; [4]) | Wild oats plant response rating (wild oat; [5]) | Wild oats plant response rating (wild oat; [6]) | Plant response rating (0 to 10; 0 is no effect, 10 is complete control), Wild oats (wild oat; Rate 250 g/ha, Postemergence) | Nutsedge plant response rating (purple nutsedge; [1]) | Nutsedge plant response rating (0 to 10 scale) (purple nutsedge; [2]) | Nutsedge plant response rating (purple nutsedge; [3]) | Nutsedge plant response rating (purple nutsedge; [4]) | Nutsedge plant response rating (purple nutsedge; [5]) | Nutsedge plant response rating (purple nutsedge; [6]) | Plant response rating (0 to 10; 0 is no effect, 10 is complete control), Nutsedge (purple nutsedge; Rate 250 g/ha, Postemergence) | Nutsedge plant response rating (purple nutsedge; [7]) | Rice plant response rating (rice; [8]) | Rice plant response rating (rice; [9]) | Rice plant response rating (rice; [10]) | Plant response rating, Rice (rice; [11]) | S. Flatsedge plant response rating (smallflower flatsedge; [8]) | S. Flatsedge plant response rating (smallflower flatsedge; [9]) | S. Flatsedge plant response rating (smallflower flatsedge; [10]) | S. Flatsedge plant response rating (smallflower flatsedge; Rate 500 g/ha, Pre-emergence, flood test species, scale 0 to 10 (0 no effect, 10 complete control)) | Ducksalad plant response rating (duck salad; [8]) | Ducksalad plant response rating (duck salad; [9]) | Ducksalad plant response rating (duck salad; [10]) | Plant response rating, Ducksalad (duck salad; [11])
